Experimental data as given in patent US20250368633A1, “AZEPINE FUSED RING COMPOUND AS RIPK1 INHIBITOR AND USE THEREOF” (ARTIVILA BIOPHARMA, priority 2022, published 2025).

What was measured:
[1] = tested on: U937 cells; test: Inhibition rate of compound (1 μM) on necroptosis of U937 cells (TSZ-induced, CellTiter-Glo); format: cell-based; conditions: TSZ (hTNF-α, SM-164, Z-VAD-FMK) 20 hours
Outline: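 Percent inhibition comes from ATP luminescence (CellTiter-Glo), referenced to wells without TSZ and wells with TSZ alone. The compound was added to U937 cells 15 min ahead of a TNF-α/SM-164/Z-VAD-FMK mix, followed by 20 h culture at 37° C, 5% CO2.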

[2] = target: T1, RIPK1 kinase (Homo sapiens, UniProt Q13546); test: In vitro RIPK1 kinase activity assay (ADP-Glo), inhibition by compounds at 1 μM; format: biochemical; conditions: compound 1 μM; ATP 10 μM; MBP substrate 100 μg/mL; read-out: RIPK1 kinase activity inhibition rate range
T1 construct: purchased Promega VA7593
T1 sequence (Q13546 1-671): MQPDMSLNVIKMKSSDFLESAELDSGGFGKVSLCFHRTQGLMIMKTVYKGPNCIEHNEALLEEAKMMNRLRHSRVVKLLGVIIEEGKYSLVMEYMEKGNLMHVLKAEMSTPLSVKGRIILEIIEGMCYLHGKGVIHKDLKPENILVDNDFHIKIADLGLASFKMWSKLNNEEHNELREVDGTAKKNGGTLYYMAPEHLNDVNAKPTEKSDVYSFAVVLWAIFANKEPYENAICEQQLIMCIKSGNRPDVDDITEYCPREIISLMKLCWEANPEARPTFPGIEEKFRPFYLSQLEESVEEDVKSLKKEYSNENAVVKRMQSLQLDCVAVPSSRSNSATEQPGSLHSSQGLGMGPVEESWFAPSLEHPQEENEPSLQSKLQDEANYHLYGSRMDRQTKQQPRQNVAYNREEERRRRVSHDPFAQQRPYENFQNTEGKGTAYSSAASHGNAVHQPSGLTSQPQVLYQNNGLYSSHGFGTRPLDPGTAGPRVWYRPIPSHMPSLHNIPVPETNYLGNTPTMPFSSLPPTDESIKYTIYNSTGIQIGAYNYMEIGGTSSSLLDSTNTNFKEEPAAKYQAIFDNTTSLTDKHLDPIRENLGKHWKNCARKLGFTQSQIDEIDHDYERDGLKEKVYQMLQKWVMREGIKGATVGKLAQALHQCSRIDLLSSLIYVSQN
Outline: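 Read by ADP-Glo chemiluminescence as percent inhibition: RIPK1 kinase, 15-min room-temperature compound preincubation, then 1-h reaction with MBP (100 μg/mL final) and ATP (10 μM final). Enzyme level was set by titration.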

[3] = tested on: U937 cells; test: EC50 of necroptosis inhibition in U937 cells (TSZ-induced, CellTiter-Glo); format: cell-based; conditions: Homo sapiens, U-937; TSZ (hTNF-α, SM-164, Z-VAD-FMK) 20 hours; 10 concentration points; read-out: EC50 intervals of necroptosis inhibition in U937 cells
Outline: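 Luminescent ATP readout (CellTiter-Glo) after 20 h gave viability of TSZ-challenged U937 cells; compounds were added 15 min ahead of TNF-α/SM-164/Z-VAD-FMK. EC50 derived by variable-slope nonlinear regression of inhibition relative to no-TSZ and TSZ-alone controls.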

Row | Compound | Inhibition rate range of compounds (1 μM) on U937 cell necroptosis [1] | inhibition at 1 µM [2] [%] | EC50 [3] [nM]
1 | CC(=O)N1CC(O)(C#Cc2ccc3c(c2)N(C)C(=O)[C@@H](NC(=O)C(=O)NCCc2ccccc2)CO3)C1 [Example 93, (S)—N^1-(7-((1-acetyl-3-hydroxyazetidin-3-yl)ethynyl)-5-methyl-4-oxo-2,3,4,5-tetrahydrobenzo[b][1,4]oxazepin-3-yl)-N^2-phenethyloxalamide] | A (A: ≥90%) | ≥ 75 | 100 to 500
2 | CN1C(=O)[C@@H](NC(=O)C(=O)NCCc2ccccc2)COc2ccc(C#CCCC(=O)O)cc21 [Example 95, (S)-5-(5-methyl-4-oxo-3-(2-oxo-2-(phenethylamino)acetamido)-2,3,4,5-tetrahydrobenzo[b][1,4]oxazepin-7-yl) pent-4-ynoic acid] | B (B: 50-89%) | ≥ 75 | 500 to 2000
3 | CN1C(=O)[C@@H](NC(=O)C(=O)NCCc2cccc(F)c2)COc2ccccc21 [Example 100, (S)—N^1-(3-fluorophenethyl)-N^2-(5-methyl-4-oxo-2,3,4,5-tetrahydrobenzo[b][1,4]oxazepin-3-yl)oxamalide] | B (B: 50-89%) | ≥ 75 | 100 to 500
4 | CN1C(=O)[C@@H](NC(=O)C(=O)NCc2cc(F)cc(F)c2)COc2ccccc21 [Example 102, (S)—N^1-(3,5-difluorobenzyl)-N^2-(5-methyl-4-oxo-2,3,4,5-tetrahydrobenzo[b][1,4]oxazepin-3-yl)oxalamide] | B (B: 50-89%) | 25 to 49 | 500 to 2000
5 | CN1C(=O)[C@@H](NC(=O)C(=O)NCc2ccccc2)COc2ccc(C#CCN3CCC(O)CC3)cc21 [Example 105, (S)—N^1-benzyl-N^2-(7-(3-(4-hydroxypiperidin-1-yl)prop-1-yn-1-yl)-5-methyl-4-oxo-2,3,4,5-tetrahydrobenzo[b][1,4]oxazepin-3-yl)oxalamide] | A (A: ≥90%) | ≥ 75 | < 100
6 | Cc1ccccc1CNC(=O)C(=O)N[C@H]1COc2ccc(C#CCN3CCNC(=O)C3)cc2N(C)C1=O [Example 108, (S)—N^1-(5-methyl-4-oxo-7-(3-(3-oxopiperazin-1-yl)prop-1-yn-1-yl)-2,3,4,5-tetrahydrobenzo[b][1, 4]oxazepin-3-yl)-N^2-(2-methylbenzyl)oxalamide] | A (A: ≥90%) | ≥ 75 | < 100
7 | CN1C(=O)[C@@H](NC(=O)C(=O)NCCc2cccc(F)c2)COc2ccc(C#CC3CCCNC3)cc21 (stereo partly drawn) [Example 116, N^1-(3-fluorophenethyl)-N^2-((3S)-5-methyl-4-oxo-7-(piperidin-3-ylethynyl)-2,3,4,5-tetrahydrobenzo[b][1,4]oxazepin-3-yl)oxalamide] | A (A: ≥90%) | 50 to 74 | 100 to 500
8 | CN1C(=O)[C@@H](NC(=O)C(=O)NCCc2cccc(F)c2)COc2ccc(C#CCN3CCC(=O)C3)cc21 [Example 119, (S)—N^1-(3-fluorophenethyl)-N^2-(5-methyl-4-oxo-7-(3-(3-oxopyrrolidin-1-yl)prop-1-yn-1-yl)-2,3,4,5-tetrahydrobenzo[b][1,4]oxazepin-3-yl)oxalamide] | A (A: ≥90%) | 25 to 49 | < 100
9 | CN1C(=O)[C@@H](NC(=O)C(=O)NCCc2cccc(F)c2)COc2ccc(C#CCN3CCN(CCO)CC3)cc21 [Example 121, (S)—N^1-(3-fluorophenethyl)-N^2-(7-(3-(4-(2-hydroxyethyl)piperazin-1-yl)prop-1-yn-1-yl)-5-methyl-4-oxo-2,3,4,5-tetrahydrobenzo[b][1,4]oxazepin-3-yl)oxalamide] | B (B: 50-89%) | ≥ 75 | < 100
10 | C[C@H](NC(=O)C(=O)N[C@H]1COc2ccc(C#CCCO)cc2N(C)C1=O)c1ccccc1 [Example 124, N^1-((S)-7-(4-hydroxybut-1-yn-1-yl)-5-methyl-4-oxo-2,3,4,5-tetrahydrobenzo[b][1,4]oxazepin-3-yl)-N^2-((S)-1-phenylethyl)oxalamide] | A (A: ≥90%) | 50 to 74 | 100 to 500
11 | C[C@@H](NC(=O)C(=O)N[C@H]1COc2ccc(C#CC3COC3)cc2N(C)C1=O)c1ccccc1 [Example 131, (S)—N^1-(5-methyl-7-(oxetan-3-ylethynyl)-4-oxo-2,3,4,5-tetrahydrobenzo[b][1,4]oxazepin-3-yl)-N^2-((R)-1-phenylethyl)oxalamide] | A (A: ≥90%) | ≥ 75 | < 100
12 | C[C@@H](NC(=O)C(=O)N[C@H]1COc2ccc(C#CCn3ccnc3)cc2N(C)C1=O)c1ccccc1 [Example 134, N^1-((S)-7-(3-(1H-imidazol-1-yl)prop-1-yn-1-yl)-5-methyl-4-oxo-2,3,4,5-tetrahydrobenzo[b][1,4]oxazepin-3-yl)-N^2-((R)-1-phenylethyl)oxalamide] | A (A: ≥90%) | 50 to 74 | < 100
13 | C[C@@H](NC(=O)C(=O)N[C@H]1COc2ccc(C#CC3CCNCC3)cc2N(C)C1=O)c1ccccc1 [Example 135, N^1-((S)-5-methyl-4-oxo-7-(piperidin-4-ylethynyl)-2,3,4,5-tetrahydrobenzo[b][1,4]oxazepin-3-yl)-N^2-((R)-1-phenylethyl)oxalamide] | A (A: ≥90%) | 25 to 49 | < 100
14 | C[C@@H](NC(=O)C(=O)N[C@H]1COc2ccc(C#CC3CCN(C)CC3)cc2N(C)C1=O)c1ccccc1 [Example 136, N^1-((S)-5-methyl-7-((1-methylpiperidin-4-yl)ethynyl)-4-oxo-2,3,4,5-tetrahydrobenzo[b][1,4]oxazepin-3-yl)-N^2-((R)-1-phenylethyl)oxalamide] | A (A: ≥90%) | 25 to 49 | < 100
15 | C[C@@H](NC(=O)C(=O)N[C@H]1COc2ccc(C#CCN3CCNCC3)cc2N(C)C1=O)c1ccccc1 [Example 142, N^1-((S)-5-methyl-4-oxo-7-(3-(piperazin-1-yl)prop-1-yn-1-yl)-2,3,4,5-tetrahydrobenzo[b][1,4]oxazepin-3-yl)-N^2-((R)-1-phenylethyl)oxalamide] | A (A: ≥90%) | ≥ 75 | < 100
16 | CC(=O)N1CCN(CC#Cc2ccc3c(c2)N(C)C(=O)[C@@H](NC(=O)C(=O)N[C@H](C)c2ccccc2)CO3)CC1 [Example 143, N^1-((S)-7-(3-(4-acetylpiperazin-1-yl)prop-1-yn-1-yl)-5-methyl-4-oxo-2,3,4,5-tetrahydrobenzo[b][1,4]oxazepin-3-yl)-N^2-((R)-1-phenylethyl)oxalamide] | A (A: ≥90%) | ≥ 75 | < 100
17 | C[C@@H](NC(=O)C(=O)N[C@H]1COc2ccc(C#CC3CN(C)C3)cc2N(C)C1=O)c1ccccc1 [Example 147, N^1-((S)-5-methyl-7-((1-methylazetidin-3-yl)ethynyl)-4-oxo-2,3,4,5-tetrahydrobenzo[b][1,4]oxazepin-3-yl)-N^2-((R)-1-phenylethyl)oxalamide] | A (A: ≥90%) | ≥ 75 | < 100
